The nature of experiment [1]: A549 cell cytotoxicity, dose response, cytotoxicity control, plate reader, cherry-pick, antagonist series (AID 743412). It counts as functional, cell-based.
A short description of experiment [2]: LGR2 antagonists, dose response, cell-based, HEK293, CRE-luciferase reporter, cherry pick, set 2 (AID 743343).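 Also: transfected cells were stimulated with diluted bursicon conditioned medium after compound addition.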 It is filed as functional. On the technique in general: In a reporter assay the amount or activity of a reporter protein is the signal.
Experiment [3] can be described thus: MC4R antagonists, dose response, counter-screen for LGR2 antagonist project, cell-based, plate reader, cherry pick (AID 743444).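 Also: transfected HEK 293 cells stimulated with alpha-MSH peptide; potency of inhibitors of the alpha-MSH evoked signal.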 It counts as functional.
Experiment [4] is described as follows: inhibitors of firefly luciferase expression or activity, dose response, H4 neuroglioma cells, luminescence (AID 1990). It counts as functional, cell-based.
In experiment [5] the test system is Streptococcus sp. 'group A'. As to the kind of experiment: growth inhibition of control SK(-) GAS strain, dose response, counter-screen for streptokinase expression inhibitor project, luminescence, kanamycin, BacTiterGlo, confirmation (AID 1900). It counts as functional, organism-based. On the technique in general: A counterscreen serves to expose hits that act by an unwanted route or on another target.

Experiment [6] relates to BJ. As to the kind of experiment: cytotoxicity toward BJ-TERT fibroblasts, dose response, cell-based, RAS-independent, luminescence (AID 1933). The note with it: Homo sapiens. It is filed as functional.
The nature of experiment [7]: Luminescence Cell-Based Dose Response HTS to Identify Inhibitors of 5'UTR Stem-Loop Driven Prion Protein mRNA Translation in H4 Neuroglioblastoma Cells. [Related pubchem assays: 1827 (Project Summary), 1813 (Primary HTS)]. It counts as functional.
A short description of experiment [8]: inhibitors of SNCA 5'UTR-driven reporter translation, confirmation, H4 neuroglioma cells, luminescence (AID 1988). It is filed as functional, cell-based.
For a further experiment, the target named is T1, Streptokinase A (Streptococcus pyogenes serotype M1, UniProt P10520).
T1 sequence (P10520 whole entry): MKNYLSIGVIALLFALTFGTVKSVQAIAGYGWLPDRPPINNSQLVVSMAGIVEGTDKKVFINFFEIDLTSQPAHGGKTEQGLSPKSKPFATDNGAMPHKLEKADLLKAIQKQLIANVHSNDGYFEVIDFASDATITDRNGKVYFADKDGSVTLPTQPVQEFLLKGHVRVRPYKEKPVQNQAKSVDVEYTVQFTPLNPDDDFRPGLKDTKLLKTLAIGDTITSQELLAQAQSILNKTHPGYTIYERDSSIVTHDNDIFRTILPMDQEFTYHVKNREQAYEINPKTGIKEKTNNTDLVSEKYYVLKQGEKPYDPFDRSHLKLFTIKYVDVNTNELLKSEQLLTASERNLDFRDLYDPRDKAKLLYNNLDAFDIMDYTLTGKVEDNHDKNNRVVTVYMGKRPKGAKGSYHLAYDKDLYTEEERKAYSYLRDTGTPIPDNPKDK
As to the kind of experiment: S. pyogenes streptokinase expression inhibitors, potency, dose response, plasminogen activation absorbance, OD405 (AID 1914).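 Also: secreted streptokinase activity via plasminogen activation per viability signal from cell pellet.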 It counts as functional, Streptococcus pyogenes M1 GAS.

The test system of experiment [9] is BJ. As to the kind of experiment: cells. It counts as functional, cell-based. Conditions: Homo sapiens.
Experiment [10] relates to BJ. Briefly: cytotoxicity toward BJ-TERT-LT-ST fibroblasts, dose response, cell-based, RAS-independent, luminescence (AID 1935).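 Also: BJ fibroblasts immortalized with TERT plus LT and ST oncogenes.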 It counts as functional. Conditions: Homo sapiens.
The nature of experiment [11]: cytotoxicity toward DRD oncogenic fibroblasts, dose response, cell-based, non-viral oncogenic, luminescence (AID 1934). It is filed as functional. The note with it: Homo sapiens.
A further experiment deals with Streptococcus. As to the kind of experiment: Group A Streptococcus viability loss, dose response, counter-screen for streptokinase expression inhibitor project, luminescence, BacTiterGlo (AID 1915).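 Also: potency for reduction of bacterial viability or growth.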 It is filed as functional, organism-based.
Experiment [12] addresses T2, Replicative DNA helicase DnaB (Mycobacterium tuberculosis, UniProt P9WMR3).
T2 sequence (P9WMR3 whole entry): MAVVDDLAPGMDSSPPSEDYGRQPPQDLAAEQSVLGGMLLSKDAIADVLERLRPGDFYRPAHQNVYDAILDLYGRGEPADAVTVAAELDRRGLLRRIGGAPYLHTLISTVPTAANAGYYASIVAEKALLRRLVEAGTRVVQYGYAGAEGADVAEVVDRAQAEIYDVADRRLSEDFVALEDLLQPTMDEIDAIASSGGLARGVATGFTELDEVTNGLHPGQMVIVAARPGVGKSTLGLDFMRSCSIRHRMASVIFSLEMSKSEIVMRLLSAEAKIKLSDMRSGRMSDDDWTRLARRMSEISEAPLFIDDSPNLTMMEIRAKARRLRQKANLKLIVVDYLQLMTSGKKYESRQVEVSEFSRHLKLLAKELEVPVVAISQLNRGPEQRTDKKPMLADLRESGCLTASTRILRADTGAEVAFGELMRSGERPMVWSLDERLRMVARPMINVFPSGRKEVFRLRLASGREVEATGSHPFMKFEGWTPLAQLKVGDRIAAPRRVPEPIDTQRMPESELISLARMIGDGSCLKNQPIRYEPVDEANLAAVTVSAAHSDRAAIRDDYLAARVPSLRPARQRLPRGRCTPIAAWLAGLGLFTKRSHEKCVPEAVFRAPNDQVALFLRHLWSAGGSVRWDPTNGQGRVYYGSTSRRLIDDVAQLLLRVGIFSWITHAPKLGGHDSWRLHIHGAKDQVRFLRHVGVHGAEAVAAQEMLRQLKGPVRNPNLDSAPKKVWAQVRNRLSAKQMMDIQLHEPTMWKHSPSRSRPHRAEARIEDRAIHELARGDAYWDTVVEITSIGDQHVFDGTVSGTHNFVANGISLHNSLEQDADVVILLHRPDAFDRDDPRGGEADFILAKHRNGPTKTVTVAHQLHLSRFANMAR
Briefly: DnaB intein splicing inhibitors, dose response, biochemical, cell-free fluorescence (AID 449749). It is filed as functional.

The next experiment concerns the target T3, Protein RecA (Mycobacterium tuberculosis, UniProt P9WHJ3).
T3 sequence (P9WHJ3 whole entry): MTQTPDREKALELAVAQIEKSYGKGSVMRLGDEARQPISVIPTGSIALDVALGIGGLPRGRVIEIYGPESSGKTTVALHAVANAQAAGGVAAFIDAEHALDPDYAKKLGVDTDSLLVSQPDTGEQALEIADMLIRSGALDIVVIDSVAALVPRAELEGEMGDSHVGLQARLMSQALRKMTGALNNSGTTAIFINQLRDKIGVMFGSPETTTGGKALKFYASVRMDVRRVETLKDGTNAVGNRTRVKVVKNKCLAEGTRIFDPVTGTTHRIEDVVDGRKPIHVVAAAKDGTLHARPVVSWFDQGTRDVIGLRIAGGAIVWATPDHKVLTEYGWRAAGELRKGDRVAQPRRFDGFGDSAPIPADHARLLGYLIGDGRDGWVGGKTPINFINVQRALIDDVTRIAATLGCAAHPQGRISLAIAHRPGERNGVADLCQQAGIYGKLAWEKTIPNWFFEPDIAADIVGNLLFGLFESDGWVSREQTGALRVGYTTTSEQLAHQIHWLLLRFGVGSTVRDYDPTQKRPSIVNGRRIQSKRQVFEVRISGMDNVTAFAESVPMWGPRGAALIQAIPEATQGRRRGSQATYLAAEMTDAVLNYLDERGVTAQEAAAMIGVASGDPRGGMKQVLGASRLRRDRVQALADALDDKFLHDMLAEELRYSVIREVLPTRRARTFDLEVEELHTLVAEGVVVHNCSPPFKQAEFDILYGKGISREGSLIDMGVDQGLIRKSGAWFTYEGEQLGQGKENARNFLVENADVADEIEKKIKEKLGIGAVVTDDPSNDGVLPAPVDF
As to the kind of experiment: Fluorescence Cell-Free Homogeneous Dose Retest to Identify Inhibitors of RecA-Intein Splicing Activity. [Related pubchem assays (depositor defined):AID2097, AID2223, AID489010, AID492950]. It is filed as functional.

The next experiment has as its system INS1. Briefly: beta cell apoptosis inhibitors, cytokine rescue, dose response, luminescence, retest (AID 449756).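 Also: cell death triggered by IL-1 beta plus TNF-alpha plus IFN-gamma mixture; protective hits raise ATP signal compared with cytokine alone wells.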 It counts as functional, cell-based. Conditions: Rattus norvegicus.
The target of experiment [13] is Fructose-bisphosphate aldolase (Mycobacterium tuberculosis, UniProt P9WQA3). Briefly: Fluorescence-based biochemical high throughput dose response assay for inhibitors of the fructose-bisphosphate aldolase (FBA) of M. tuberculosis. It is filed as functional.
A short description of experiment [14]: T. cruzi growth inhibition in host cells, dose response, cell-based, plate reader, dry powder, set 2 (AID 652275). It counts as functional.
A short description of experiment [15]: human group III sPLA2 inhibitors, dose response, biochemical, QFRET, IC50 (AID 743457).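 Also: green fluorescence rise as the enzyme cleaves BODIPY PC-A2 in liposomes; potency for inhibition of the enzyme.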
The test system of a further experiment is HeLa. As to the kind of experiment: HeLa cell cytotoxicity, dose response, cytotoxicity control, ATP luminescence, cherry-pick samples (AID 687004). It counts as functional, cell-based. Conditions: Homo sapiens.
A short description of experiment [16]: growth suppression of PTEN-null colon cells, dose response, cell-based, HCT116 PTEN knockout (AID 1047).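 Also: HCT116 colon tumor cells with PTEN knocked out; cells exposed to compound for 60 hours before readout; potency for loss of cell viability measured by luminescence.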 It counts as functional.
Experiment [17] is described as follows: growth suppression of beta-catenin-knockout colon cells, dose response, cell-based, HCT116, human colon tumor (AID 1045).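 Also: HCT116 colon tumor cells with beta catenin knocked out; cells exposed to compound for 60 hours.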 It is filed as functional.
A short description of experiment [18]: Shn3 3'UTR reporter inhibitors, dose response, cell-based, Clone20 osteoblasts, firefly luciferase, cherry-picked (AID 624132).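 Also: firefly luciferase luminescence from reporter carrying the Shn3 3'UTR in osteoblasts.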 It counts as functional.
The nature of experiment [19]: HepG2 cell cytotoxicity, dose response, cytotoxicity control for Shn3 inhibitor project, CellTiter-Glo, cherry-picked (AID 624134). It counts as functional, cell-based.
Experiment [20] can be described thus: control 3'UTR Renilla luciferase suppression, dose response, counter-screen for Shn3 inhibitor project, cell-based, Clone20-Shn3RL, cherry-picked (AID 624133). It is filed as functional.
In a further experiment the target is Paired box protein Pax-8 (Homo sapiens, UniProt Q06710). As to the kind of experiment: inhibitors of PAX8-driven TPO luciferase reporter, dose response, RMG-I cells, cherry-pick (AID 687027).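 Also: luciferase reporter driven by Pax8 target thyroperoxidase promoter measured by SteadyGlo luminescence.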 It counts as functional, cell-based.
Experiment [21] is described as follows: HepG2 cell cytotoxicity, dose response, cytotoxicity control, ATP luminescence, cherry-pick, activator set 2 (AID 1053143). It is filed as functional, cell-based.
The target of experiment [22] is Metabotropic glutamate receptor 3 (Rattus norvegicus, UniProt P31422). As to the kind of experiment: mGlu3 NAM potency via calcium readout, dose response, mGlu3 NAM project, TREx293 cells, Galpha15, calcium flux (AID 651840). It counts as functional. In general terms: A change in cytosolic calcium serves as a functional read-out for many receptors and channels.

pIC50: −log10 of the molar value. The source made the active and inactive calls.

Chain of Metabotropic glutamate receptor 3 (P31422 whole entry): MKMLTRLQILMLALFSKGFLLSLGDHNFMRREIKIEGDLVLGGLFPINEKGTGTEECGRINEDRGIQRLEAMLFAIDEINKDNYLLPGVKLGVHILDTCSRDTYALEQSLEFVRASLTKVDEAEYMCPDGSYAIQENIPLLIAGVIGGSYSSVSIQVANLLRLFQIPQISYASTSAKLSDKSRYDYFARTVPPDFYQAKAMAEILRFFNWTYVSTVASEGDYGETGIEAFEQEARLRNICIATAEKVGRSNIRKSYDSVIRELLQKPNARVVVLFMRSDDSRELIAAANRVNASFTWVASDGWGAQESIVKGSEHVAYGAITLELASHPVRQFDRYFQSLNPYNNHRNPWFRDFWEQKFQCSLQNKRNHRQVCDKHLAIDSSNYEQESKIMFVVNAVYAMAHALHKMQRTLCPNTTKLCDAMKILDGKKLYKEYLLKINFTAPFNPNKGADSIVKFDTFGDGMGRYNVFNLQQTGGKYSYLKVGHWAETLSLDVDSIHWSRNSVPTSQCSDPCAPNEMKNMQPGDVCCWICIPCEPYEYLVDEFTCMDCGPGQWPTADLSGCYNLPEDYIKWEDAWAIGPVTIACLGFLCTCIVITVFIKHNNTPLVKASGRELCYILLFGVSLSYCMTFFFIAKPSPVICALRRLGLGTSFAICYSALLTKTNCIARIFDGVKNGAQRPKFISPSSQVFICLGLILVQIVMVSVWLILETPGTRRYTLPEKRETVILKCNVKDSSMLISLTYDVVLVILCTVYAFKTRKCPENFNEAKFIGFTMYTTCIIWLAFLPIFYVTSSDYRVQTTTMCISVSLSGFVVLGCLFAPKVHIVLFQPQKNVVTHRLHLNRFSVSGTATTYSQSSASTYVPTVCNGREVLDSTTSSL
Chain of Fructose-bisphosphate aldolase (P9WQA3 whole entry): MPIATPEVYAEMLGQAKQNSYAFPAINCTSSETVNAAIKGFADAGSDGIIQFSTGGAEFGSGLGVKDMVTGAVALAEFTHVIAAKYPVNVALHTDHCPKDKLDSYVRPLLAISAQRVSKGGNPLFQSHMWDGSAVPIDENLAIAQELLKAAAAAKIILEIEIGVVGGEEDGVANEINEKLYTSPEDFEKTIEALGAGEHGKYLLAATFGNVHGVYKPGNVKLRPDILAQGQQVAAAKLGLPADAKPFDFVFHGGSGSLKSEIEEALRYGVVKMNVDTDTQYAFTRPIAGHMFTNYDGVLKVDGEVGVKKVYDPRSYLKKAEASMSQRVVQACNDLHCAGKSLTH
Chain of Paired box protein Pax-8 (Q06710 whole entry): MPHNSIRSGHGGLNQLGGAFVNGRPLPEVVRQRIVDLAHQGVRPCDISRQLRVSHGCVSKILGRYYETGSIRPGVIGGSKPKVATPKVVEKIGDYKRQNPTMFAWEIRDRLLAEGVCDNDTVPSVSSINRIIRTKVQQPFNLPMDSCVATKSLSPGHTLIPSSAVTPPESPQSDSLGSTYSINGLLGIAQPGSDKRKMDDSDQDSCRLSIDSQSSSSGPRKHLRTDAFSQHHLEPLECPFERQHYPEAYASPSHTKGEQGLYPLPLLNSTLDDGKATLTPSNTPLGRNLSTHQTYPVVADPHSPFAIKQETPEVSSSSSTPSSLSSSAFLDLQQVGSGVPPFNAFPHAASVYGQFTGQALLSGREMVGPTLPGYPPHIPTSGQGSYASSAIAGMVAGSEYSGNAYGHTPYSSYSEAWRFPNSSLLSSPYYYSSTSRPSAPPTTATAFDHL

Broadly, the AC50 is the concentration giving half of the maximal activity seen. Take `O=C(Nc1ccc(NC(=O)c2ccco2)nc1)c1ccco1`: the results for the AC50 in experiment [1], in experiment [2] and in experiment [3] were > 52 µM (inactive), 6.67 µM (active) and 8.62 µM (active), respectively.
One may read the EC50 as the midpoint of the concentration-response curve. One may read the IC50 as the midpoint of a concentration-inhibition curve. As to `Cc1ccc(-c2cc(-c3ccc(C)cc3)[n+](-c3ccc(C(=O)[O-])cc3)c(-c3ccc(C)cc3)c2)cc1`, the EC50 in experiment [4] was > 120 µM (not active); in experiment [5] it was 12.6 µM (active); with BJ [6], 2.76 µM (active); in experiment [7], 63.5 µM (active); in [8], > 120 µM (not active); on Streptokinase A it was > 150 µM (not active). Moreover, the EC50 in the experiment on BJ [9] was 13.6 µM (active); with BJ [10], 14.9 µM (inconclusive); in experiment [11], 8.62 µM (inconclusive); in the experiment on Streptococcus, > 150 µM (not active); at Protein RecA it was 40.5 µM (active). Further, the figures for the AC50 (in experiment [12]; with INS1) were 38.2 µM (active) and 6.34 µM (active), respectively. In addition, the IC50 in experiment [13] is 1.86 µM (active).
Regarding `CN(C)C(=O)c1cccc(-c2ccc([C@H]3[C@H](CO)N4CCCCN(Cc5cccnc5)C[C@@H]34)cc2)c1`, in experiment [14], the AC50 is 0.481 µM (active).
On the same count and under the same terms, as for `CC(C)N1C[C@H](CN(C)Cc2ccc(Oc3ccccc3)cc2)Oc2c(NC(=O)c3ccncc3)cccc2C1=O`, the figure is 0.00193 µM (active).
For the compound `c1ccc2c(c1)c1c3n2CCNC3CCC1` (stereo not given), the IC50 in experiment [15] was > 122 µM (inactive).
As to `CC(C)NC(=O)Nc1ccc2c(c1)C(=O)N([C@@H](C)CO)C[C@H](C)[C@@H](CN(C)Cc1ccc3c(c1)OCO3)OCCCC[C@@H](C)O2`, the concentration at half-maximal activity (AC50) in the experiment on HeLa was 19.5 µM (active).
Regarding `Cc1cccc(/C=C(\c2nc3ccccc3[nH]2)S(=O)(=O)c2ccccc2)c1`, the EC50 was 2.33 µM (active) in experiment [16] and 2.37 µM (active) in [17]. Besides, the AC50 in [18] is 4.5 µM (active); in [19], 24.5 µM (active); in [20], 7.04 µM (active); at Paired box protein Pax-8, 4.1 µM (active); in experiment [21], 11.1 µM (active).
One may read the pIC50 as −log10 of the IC50, conventionally taken in molar units. Turning to `C=CCC1(O)CCCN(C(=O)c2ccc(C#Cc3ccc(OC)cc3)cc2)C1` (stereo not given), in experiment [22], the pIC50 was 6.11.
On to `CC(=O)c1sc(NC(=O)c2cc(-c3ccccc3)nn2-c2ccccc2)nc1C`, for which the AC50 in the experiment on HeLa is > 52 µM (inactive).

Source of the values: ChEMBL document CHEMBL1201862, “PubChem BioAssay data set” (2004).
